Test results: ChEMBL document CHEMBL3046952, “Stereoselective synthesis of 2-amino-1-hydroxy-3-phenylpropylphosphonic acid” (1996)
Activity calls are given as the source filed them. The rule behind the calls is not given here.

Assays:
Lepidium sativum [1] = assay: Inhibition of growth of Lepidium sativum root at 0.05 mM relative to control; format: functional; details: read-out: GI
Cucumis sativus [2] = assay: Inhibition of growth of Cucumis sativus (cucumber) root at 0.05 mM relative to control; format: functional; details: read-out: GI
Lepidium sativum [3] = assay: Inhibition of growth of Lepidium sativum hypocotyl at 1.5 mM relative to control; format: functional; details: read-out: GI
Lepidium sativum [4] = assay: Inhibition of growth of Lepidium sativum hypocotyl at 0.15 mM relative to control; format: functional; details: read-out: GI
Lepidium sativum [5] = assay: Inhibition of growth of Lepidium sativum hypocotyl at 0.05 mM relative to control; format: functional; details: read-out: GI
Lepidium sativum [6] = assay: Inhibition of growth of Lepidium sativum hypocotyl at 0.5 mM relative to control; format: functional; details: read-out: GI
Cucumis sativus [7] = assay: Inhibition of growth of Cucumis sativus (cucumber) hypocotyl at 0.15 mM relative to control; format: functional; details: read-out: GI
Lepidium sativum [8] = assay: Inhibition of growth of Lepidium sativum root at 0.15 mM relative to control; format: functional; details: read-out: GI
[9] = Inhibition of cytosolic aminopeptidase
Lepidium sativum [10] = assay: Inhibition of growth of Lepidium sativum root at 1.5 mM relative to control; format: functional; details: read-out: GI
Cucumis sativus [11] = assay: Inhibition of growth of Cucumis sativus (cucumber) hypocotyl at 1.5 mM relative to control; format: functional; details: read-out: GI
Cucumis sativus [12] = assay: Inhibition of growth of Cucumis sativus (cucumber) hypocotyl at 0.5 mM relative to control; format: functional; details: read-out: GI
[13] = Inhibition of microsomal aminopeptidase
Cucumis sativus [14] = assay: Inhibition of growth of Cucumis sativus (cucumber) root at 0.5 mM relative to control; format: functional; details: read-out: GI
Cucumis sativus [15] = assay: Inhibition of growth of Cucumis sativus (cucumber) root at 0.15 mM relative to control; format: functional; details: read-out: GI
Cucumis sativus [16] = assay: Inhibition of growth of Cucumis sativus (cucumber) hypocotyl at 0.05 mM relative to control; format: functional; details: read-out: GI
Cucumis sativus [17] = assay: Inhibition of growth of Cucumis sativus (cucumber) root at 1.5 mM relative to control; format: functional; details: read-out: GI
Lepidium sativum [18] = assay: Inhibition of growth of Lepidium sativum root at 0.5 mM relative to control; format: functional; details: read-out: GI

Row | Structure (SMILES) | inhibition of growth at 50 µM (Lepidium sativum [1]) [%] | inhibition of growth at 50 µM (Cucumis sativus [2]) [%] | inhibition of growth at 1500 µM (Lepidium sativum [3]) [%] | inhibition of growth at 150 µM (Lepidium sativum [4]) [%] | inhibition of growth at 50 µM (Lepidium sativum [5]) [%] | inhibition of growth at 500 µM (Lepidium sativum [6]) [%] | inhibition of growth at 150 µM (Cucumis sativus [7]) [%] | inhibition of growth at 150 µM (Lepidium sativum [8]) [%] | inhibition [9] | inhibition of growth at 1500 µM (Lepidium sativum [10]) [%] | inhibition of growth at 1500 µM (Cucumis sativus [11]) [%] | inhibition of growth at 500 µM (Cucumis sativus [12]) [%] | inhibition [13] | inhibition of growth at 500 µM (Cucumis sativus [14]) [%] | inhibition of growth at 150 µM (Cucumis sativus [15]) [%] | inhibition of growth at 50 µM (Cucumis sativus [16]) [%] | inhibition of growth at 1500 µM (Cucumis sativus [17]) [%] | inhibition of growth at 500 µM (Lepidium sativum [18]) [%]
1 | N[C@@H](Cc1ccccc1)[C@H](O)P(=O)(O)O (stereo in doubt) | 82 | 69 | 68 | 46 | 22 | 64 | 45 | 86 | inactive | 92 | 64 | 56 | inactive | 81 | 75 | 36 | 83 | 87
2 | O=C(O)CNCP(=O)(O)O [GLYPHOSATE] | 86 | 60 | 44 | 16 | 13 | 20 | – | 88 | – | 93 | 22 | – | – | 78 | 71 | – | 84 | 90
3 | N[C@H](Cc1ccccc1)[C@@H](O)P(=O)(O)O (stereo in doubt) | 36 | 51 | 54 | 9 | 16 | – | 33 | 66 | inactive | 88 | 49 | 37 | inactive | 73 | 68 | 23 | 80 | 74
